Measurements published in US11841361B2, “Microfluidic proximal tubule kidney-on-chip” (EMULATE, INC., priority 2019, dated 2023).
pIC50: −log10 of the molar value.

Tests used:
[1] = tested on: Proximal Tubule Kidney-Chip; test: Creatinine and PAH secretion/transport in PT Kidney-Chip; format: in vitro ADME, human; settings: for mass balance: compound loss (inlet/outlet) in chip system / active transport (B-A versus A-B transport): S1 and HS chips; for active transport (B-A versus A-B transport): Day 8 and Day 15
Procedure: (§1) To measure creatinine secretion in the Proximal Tubule Kidney-Chip, the vascular compartment is perfused with medium containing 1 mg/dL of human creatinine, while the secretion of creatinine in the top channel is measured from chip effluent. Exemplary assay flow rate (Proximal Tubule Kidney-Chip) during this assays is 60 μL/hour. In some embodiments, samples of effluent are collected in outlet reservoirs of the module. In preferred embodiments, there is no dilution of effluent when using an exemplary commercial kit, e.g. Invitrogen™ Creatine Urinary Detection Kit (Thermo Fisher EIACUN as described at thermofisher.com, downloaded Jun. 20, 2019).
(§2) In some embodiments, creatinine transport is determined in relation to chip configuration and low vs. high flow. Creatinine Secretion: Creatinine Loss (BI-BO); Creatinine filtration (TO/BO); Apical Creatinine (TO).
(§3) After activation, S1 (tall channel) chips and high shear chips are coated with Emulate ECM (i.e. Col IV+ Matrigel) on the side of the membrane (typically the top channel) intended for seeding with PT Kidney Cells. For monocultures, proximal tubular cells are seeded into the channel with the ECM coated membrane. For co-culturing PT Kidney Cells (system), glomerular microvascular endothelial cells are seeded on bottom channel and incubated for overnight. The following day, proximal tubular cells are seeded into the top channel (where the membrane is coated with ECM) and cultured for 2 days under static conditions, i.e. no fluid flow. Chips will be connected to a culture module at day 3 along with starting flow at 150 ul/h for both channels. Media should be replenished daily. At day 7, PAH and Creatinine will be dosed Apically under a 150 ul/h flow rate then A to B transport will be measured. Initial collection (after 2 hours) will be discard and during the following 22 hours effluent fluid (media) will be collected at desired times for measurements. At day 8, PAH and Creatinine will then be dosed Basally at 150 ul/h flow rate and B to A transport will be measured. Initial collection during 2 hours will be discarded and over the following 22 hours, the media will be collected for measurement. At day 9, the chip will be return to culture mode and cultured for additional […]. At day 14 PAH and Creatinine will be dosed Apically at 150 ul/h flow rate and A to B transport will be measured. Initial collection (2 hours) will be discard and during the following 22 hours the media will be collected for measurement. At day 15, PAH and Creatinine will be dosed Basally at 150 ul/h flow rate and B to A transport will be measured. Initial collection during 2 hours will be discarded and the following 22 hours, the media will be collected for measurement.

[2] = as above; format: in vitro ADME, human; settings: human, Proximal Tubule Kidney-Chip; read-out: recovery of compound in the chip
Procedure: as §1, §2, §3

[3] = tested on: Transwell kidney cell cultures; test: Efflux ratio of probe substrates in Transwell cultures; settings: no inhibitor
[4] = tested on: Proximal Tubule Kidney-Chip; test: Efflux ratio / permeability of probe substrates in Proximal Tubule Kidney-Chip
Procedure: (§4) Additional transporter Tier 1 test substrates/substances include but are not limited to: 1. […] TEA; 4. PAH; 5. Estrone-3-sulfate (E3S); 6. Glycylsarcosine. In some embodiments, microfluidic devices are treated with a substance followed by a 30 minute flushing cycle. In some embodiments, microfluidic devices under go 100 ul/hr of flow during transported function measurements.
(§5) Permeability from the vascular (V) to luminal (L) direction (Papp(V−L)) and permeability from the luminal to vascular direction (Papp(L−V)) were determined along with calculating the efflux ratio (Papp(V−L)/PapP(L−V)). […] However, the values were included in the calculations to calculate the efflux ratio.

[5] = Material absorption into Kidney-Chip and perfusion manifold materials; format: physicochemical; settings: REGM serum-free medium; 1-72 hr; glass control
From the text: In some embodiments, Material Absorption is one exemplary readout. When testing compounds added to a PT Kidney Chip, a determination of material absorption is made for that compound. The following is a exemplary method for determining material adsorption of a compound.
Study Conditions. Study approach: Each experiment includes a number of controls and test conditions. These allow us to tease out: Adsorption to the vial/well-plate. Absorption vs. adsorption to the tested material.
• 1. Dissolve the small molecule in an aqueous phase (medium) and incubate it with the tested material. • 2. Measure the concentration of small molecule remaining in the aqueous phase (using mass spec, plate reader). • 3. Curve-fit the measured data to quantify the absorption and diffusion parameters.

[6] = Prediction of clearance versus clinical values; settings: proximal tubule Kidney chip
in vitro = settings: human
Procedure: as §4, §5

[7] = tested on: proximal tubular epithelium; test: Nephrotoxicity testing in Proximal Tubule Kidney-Chip; format: cell-based, human
OCT2/MATE1/MATE2-K = test: in vitro; settings: human, Kidney-Chip (Proximal Tubule), probe Meformin (so in the source); metformin)
From the text: (§6) Substrates for transporters are termed “victim”.

OCT1/MATE1/MATE2-K = test: in vitro; settings: human, Kidney-Chip (Proximal Tubule), probe TEA
From the text: as §6

PT Kidney-Chip = test: Barrier function: inulin leakage in PT Kidney-Chip; format: in vitro ADME, human; settings: inulin added to apical channel
[8] = tested on: P-gp (digoxin); MATE1/MATE2-K (metformin); OAT1 (PAH); test: in vitro

## CN1CC(=O)NC1=N [Creatinine, 2-amino-1-methyl-5H-imadazol-4-one]
[1]
  mass balance: compound loss (inlet/outlet) in chip system: No significant creatinine loss
  active transport (B-A versus A-B transport): significant active transport
[1]; bottom channel
  Creatinine loss (BI-BO): 2.5 to 4 mM
[1]; low flow
  creatinine filtration (TO/BO): About 50%
[2]
  recovery: ~100%

## CC[N+](CC)(CC)CC [TEA, Tetraethylammonium]
[3]
  Transwell Efflux Ratio: 1.11+/−0.06
[4]; no inhibitor
  Kidney-Chip Efflux Ratio: 6.95+/−0.60
[4]; transport studies comparing different flow rates, conditions tested
  efflux ratio: > 2

## CCCCC(=O)N(Cc1ccc(-c2ccccc2-c2nnn[nH]2)cc1)[C@H](C(=O)O)C(C)C [Valsartan]
[5]
  absorption into system materials (chip material, perfusion manifold material): Minimal absorption

## CN(C)C(=N)N=C(N)N [Metformin]
[4]; day 8, S1 chip, 30 μL/hr, time-dependent
  efflux from the vascular channel to the luminal channel: significant efflux

## Nc1ncnc2c1ncn2CCOCP(=O)(O)O [Adefovir]
[6]
  predicted clearance value as % of clinical value: 85%
In vitro; Kidney-Chip Efflux Ratio
  efflux ratio: 2.01

## CC[C@@]1(O)C(=O)OCc2c1cc1n(c2=O)Cc2cc3c(CN(C)C)c(O)ccc3nc2-1 [Topotecan]
[5]
  absorption into system materials (chip material, perfusion manifold material): Minimal absorption

## Gentamicin
[7]; 10 mM, 48 hours
  LDH in medium effluent: significant increase
  N-acetyl-beta-(D)-glucosaminidase activity (NAG) in medium effluent: significant increases
  TUNEL assay: significant DNA damage
  active caspase-3 in cells lysates: increase
  microscopic analysis of the proximal tubular epithelium: structural damage
  reactive oxygen species (ROS): significant increases
[7]; dosing at Day 7 for 24 h, Gentamicin 10 mM, Cisplatin 100 μM
  Morphology: Damaged

## C[C@H]1O[C@@H](O[C@H]2[C@@H](O)C[C@H](O[C@H]3[C@@H](O)C[C@H](O[C@H]4CC[C@@]5(C)[C@H](CC[C@@H]6[C@@H]5C[C@@H](O)[C@]5(C)[C@@H](C7=CC(=O)OC7)CC[C@]65O)C4)O[C@@H]3C)O[C@@H]2C)C[C@H](O)[C@@H]1O [Digoxin]
[5]
  absorption into system materials (chip material, perfusion manifold material): Minimal absorption

## CN/C(=N/CCSCc1nc[nH]c1C)NC#N [Cimetidine]
[1]; S1 chip, trend, statistically not significant
  reduction of PAH secretion: 10%
OCT2/MATE1/MATE2-K
  pIC50: 5.36
OCT1/MATE1/MATE2-K
  pIC50: 5.50

## CCCN(CCC)S(=O)(=O)c1ccc(C(=O)O)cc1 [Probenecid]
[1]; S1 chip, inhibitor incubated 3 hours, trend, statistically not significant
  reduction of creatinine secretion: 10%

## C[C@]12CC[C@@H]3c4ccc(OS(=O)(=O)O)cc4CC[C@H]3[C@@H]1CCC2=O [Estrone-3-sulfate]
[5]
  absorption into system materials (chip material, perfusion manifold material): Minimal absorption

## inulin
PT Kidney-Chip
  Inulin leakage into the basal channel: no significant inulin leakage

## Nc1ccc(C(=O)NCC(=O)O)cc1 [PAH, p-aminohippuric acid]
[6]
  predicted clearance value as % of clinical value: 72%
In vitro; Kidney-Chip Efflux Ratio
  efflux ratio: 4.84
In vitro; efflux ratio
  efflux ratio: 2.4 to 2.7
[8]
  efflux ratio: 1.37
[1]
  mass balance: compound loss (inlet/outlet) in chip system: No significant PAH loss
  active transport (B-A versus A-B transport): significant active transport
[1]; bottom channel
  PAH loss (BI-BO): 20 to 40 µg/mL
[1]; low flow
  PHA transport (TO/BO): about 20%
[2]
  recovery: ~100%
